The text below walks through data of patent US20240383898A1, “PYRIDO RING COMPOUND, PREPARATION METHOD THEREFOR, INTERMEDIATE, COMPOSITION, AND APPLICATION” (YIYOU BIOTECH (SHANGHAI) CO., LTD, priority 2021, published 2024).

For experiment [1], the target named is T1, JAK2 (Homo sapiens, UniProt O60674).
T1 construct: purchased Carna 08-045
Description: In vitro activity test of JAK2 kinase (Caliper EZ Reader conversion assay). The following applies: enzyme activity, 10 concentrations from 1000 nM, 3-fold dilution. The format is biochemical. The essentials:
(§1)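 JAK1 or JAK2 pre-incubated with compound (top 1000 nM, 3-fold, 10 points, duplicate) for 10 min at room temperature, then ATP plus substrate added. Substrate conversion read by mobility-shift on Caliper EZ Reader after stop solution. Inhibition normalized to no-enzyme and DMSO controls; IC50 from variable-slope four-parameter fit.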

Experiment [2] has as its target T2, JAK1 (Homo sapiens, UniProt P23458).
T2 construct: purchased Carna 08-114
Description: In vitro activity test of JAK1 kinase (Caliper EZ Reader conversion assay). Conditions: enzyme activity, 10 concentrations from 1000 nM, 3-fold dilution. In kind it is biochemical. The essentials: as §1

T2 sequence (P23458 whole entry, species assumed): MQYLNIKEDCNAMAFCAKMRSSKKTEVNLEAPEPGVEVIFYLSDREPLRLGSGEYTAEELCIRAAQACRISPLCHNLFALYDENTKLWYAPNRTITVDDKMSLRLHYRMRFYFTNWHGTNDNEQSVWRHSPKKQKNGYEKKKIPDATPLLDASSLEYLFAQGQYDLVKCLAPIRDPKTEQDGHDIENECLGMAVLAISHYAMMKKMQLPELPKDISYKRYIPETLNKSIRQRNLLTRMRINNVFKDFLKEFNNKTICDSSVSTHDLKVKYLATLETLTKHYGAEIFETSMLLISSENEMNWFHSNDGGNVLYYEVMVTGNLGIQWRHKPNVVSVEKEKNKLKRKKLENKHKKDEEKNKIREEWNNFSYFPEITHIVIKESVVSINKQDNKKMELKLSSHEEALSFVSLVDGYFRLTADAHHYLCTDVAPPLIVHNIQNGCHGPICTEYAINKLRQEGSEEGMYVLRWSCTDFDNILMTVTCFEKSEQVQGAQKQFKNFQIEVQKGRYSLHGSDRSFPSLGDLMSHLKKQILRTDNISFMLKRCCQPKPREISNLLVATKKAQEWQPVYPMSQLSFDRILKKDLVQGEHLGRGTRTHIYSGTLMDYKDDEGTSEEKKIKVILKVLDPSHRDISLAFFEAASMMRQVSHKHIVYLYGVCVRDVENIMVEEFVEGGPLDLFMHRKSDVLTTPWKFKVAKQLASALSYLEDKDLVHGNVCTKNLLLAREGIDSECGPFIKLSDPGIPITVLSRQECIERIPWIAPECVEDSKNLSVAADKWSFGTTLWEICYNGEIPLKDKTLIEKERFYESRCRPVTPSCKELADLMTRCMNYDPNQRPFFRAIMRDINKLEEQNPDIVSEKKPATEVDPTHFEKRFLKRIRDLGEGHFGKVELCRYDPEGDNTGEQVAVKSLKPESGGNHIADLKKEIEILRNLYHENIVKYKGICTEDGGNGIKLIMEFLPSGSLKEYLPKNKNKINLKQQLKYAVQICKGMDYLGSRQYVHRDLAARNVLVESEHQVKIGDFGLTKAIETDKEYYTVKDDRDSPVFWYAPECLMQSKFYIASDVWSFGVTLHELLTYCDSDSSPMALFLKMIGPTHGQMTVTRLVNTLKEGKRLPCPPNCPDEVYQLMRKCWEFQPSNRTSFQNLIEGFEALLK
T1 sequence (O60674 whole entry, species assumed): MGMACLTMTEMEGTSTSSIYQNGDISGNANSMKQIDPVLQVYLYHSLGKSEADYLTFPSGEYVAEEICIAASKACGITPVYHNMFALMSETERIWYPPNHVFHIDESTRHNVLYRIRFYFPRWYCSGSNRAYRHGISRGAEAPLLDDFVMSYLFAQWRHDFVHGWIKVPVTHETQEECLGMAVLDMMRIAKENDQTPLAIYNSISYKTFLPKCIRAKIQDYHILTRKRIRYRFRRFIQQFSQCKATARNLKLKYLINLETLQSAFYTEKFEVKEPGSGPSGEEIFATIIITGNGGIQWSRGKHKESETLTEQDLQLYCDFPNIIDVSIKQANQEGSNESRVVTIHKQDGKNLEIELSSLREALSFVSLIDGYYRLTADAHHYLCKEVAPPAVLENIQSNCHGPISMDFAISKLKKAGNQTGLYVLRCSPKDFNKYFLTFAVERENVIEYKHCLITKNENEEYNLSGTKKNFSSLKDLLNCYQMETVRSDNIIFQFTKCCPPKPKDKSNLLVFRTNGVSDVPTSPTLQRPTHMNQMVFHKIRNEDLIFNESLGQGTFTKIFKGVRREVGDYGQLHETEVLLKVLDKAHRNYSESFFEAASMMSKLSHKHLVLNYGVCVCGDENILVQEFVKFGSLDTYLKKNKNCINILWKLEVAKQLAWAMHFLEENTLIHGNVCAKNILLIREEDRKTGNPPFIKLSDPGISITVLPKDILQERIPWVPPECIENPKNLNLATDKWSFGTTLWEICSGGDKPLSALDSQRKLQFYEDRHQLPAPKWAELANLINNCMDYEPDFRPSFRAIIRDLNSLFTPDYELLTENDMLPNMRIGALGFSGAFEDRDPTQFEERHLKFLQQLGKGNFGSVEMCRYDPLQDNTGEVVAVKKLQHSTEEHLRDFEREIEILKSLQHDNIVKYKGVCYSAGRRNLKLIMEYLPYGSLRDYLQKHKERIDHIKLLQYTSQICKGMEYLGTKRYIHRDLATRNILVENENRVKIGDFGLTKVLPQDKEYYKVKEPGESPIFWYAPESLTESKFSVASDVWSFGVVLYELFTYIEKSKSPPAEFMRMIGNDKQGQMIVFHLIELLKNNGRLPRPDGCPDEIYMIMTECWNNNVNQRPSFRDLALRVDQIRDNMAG

Take `C[C@@H](O)c1nc2cnc3[nH]ccc3c2n1[C@@H]1CN(CCCC(F)(F)F)C[C@H]1F` [LXS87, (R)-1-(1-((3R,4R)-4-fluoro-1-(4,4,4-trifluorobutyl)pyrrolidin-3-yl)-1,6-dihydroimidazo[4,5-d]pyrrolo[2,3-b]pyridin-2-yl)ethan-1-ol]: the IC50 – broadly, the midpoint of a concentration-inhibition curve – in experiment [1] is 100 to 1000 nM; in experiment [2], < 10 nM.
As for `Cc1ccc(S(=O)(=O)N2CCC(n3c([C@@H](C)O)nc4cnc5[nH]ccc5c43)C2)cc1` (stereo partly drawn) [LXS08, (1R)-1-(1-(1-tosylpyrrolidin-3-yl)-1,6-dihydroimidazo[4,5-d]pyrrolo[2,3-b]pyridin-2-yl)ethan-1-ol], the IC50 in experiment [1] and in experiment [2] was 100 to 1000 nM throughout.
Consider `C[C@@H](O)c1nc2cnc3[nH]ccc3c2n1[C@@H]1CN(CCCC#N)CC12CC2` [LXS69, 4-((S)-7-(2-((R)-1-Hydroxyethyl)imidazo[4,5-d]pyrrolo[2,3-b]pyridin-1(6H)-yl)-5-azaspiro[2,4]hept-5-yl)butanenitrile], for which the half-maximal inhibitory concentration (IC50) in experiment [1] and in experiment [2] was 10 to 100 nM throughout.
Turning to `C[C@@H](O)c1nc2cnc3[nH]ccc3c2n1C1CCN(S(=O)(=O)c2ccc3ccccc3c2)C1` (stereo partly drawn) [LXS10, (1R)-1-(1-(1-(naphthalen-2-ylsulfonyl)pyrrolidin-3-yl)-1,6-dihydroimidazo[4,5-d]pyrrolo[2,3-b]pyridin-2-yl)ethan-1-ol], the IC50 in experiment [1] was > 1000 nM; in experiment [2], 100 to 1000 nM.
With `N#C[C@H]1CC[C@H](n2c(-c3ccc(O)cc3O)nc3cnc4[nH]ccc4c32)CC1` (stereo in doubt) [LXS36, trans-4-(2-(2,4-Dihydroxyphenyl)imidazo[4,5-d]pyrrolo[2,3-b]pyridin-1(6H)-yl)cyclohexanecarbonitrile], the IC50 in experiment [1] and in experiment [2] was 10 to 100 nM each time.
For the compound `Cc1ccc(-c2nc3cnc4[nH]ccc4c3n2C2CCC(C#N)CC2)o1` (stereo in doubt) [LXS29, trans-4-(2-(2-Methylfuran-5-yl)imidazo[4,5-d]pyrrolo[2,3-b]pyridin-1(6H)-yl)cyclohexanecarbonitrile], the IC50 in experiment [1] and in experiment [2] was 10 to 100 nM throughout.
As for `CCCS(=O)(=O)N1CCC(n2c(-c3ccccc3O)nc3cnc4[nH]ccc4c32)C1` (stereo not shown) [LXS30, 2-(1-(1-(propylsulfonyl)pyrrolidin-3-yl)-1,6-dihydroimidazo[4,5-d]pyrrolo[2,3-b]pyridin-2-yl)phenol], the IC50 in experiment [1] and in experiment [2] was 100 to 1000 nM throughout.
In the case of `CCCS(=O)(=O)N1CCC(n2c([C@@H](C)O)nc3cnc4[nH]ccc4c32)C1` (stereo in doubt) [LXS21, (R)-1-(1-((R)-1-(Propylsulfonyl)pyrrolidin-3-yl)-1,6-dihydroimidazo[4,5-d]pyrrolo[2,3-b]pyridin-2-yl)ethanol], the IC50 in experiment [1] and in experiment [2] was 100 to 1000 nM throughout.
As to `CCCCS(=O)(=O)N1CC(CC#N)(n2cc(-n3c(-c4ccc(CO)o4)nc4cnc5[nH]ccc5c43)cn2)C1` [LXS15, 2-(1-(butylsulfonyl)-3-(4-(2-(5-(hydroxymethyl)furan-2-yl)imidazo[4,5-d]pyrrolo[2,3-b]pyridin-1(6H)-yl)-1H-pyrazol-1-yl)azetidin-3-yl)acetonitrile], the IC50 in experiment [1] was in the range of 10 to 100 nM; in experiment [2] it was 100 to 1000 nM.
Take `N#CCCCn1cc(-n2cnc3cnc4[nH]ccc4c32)cn1` [LXS103, 4-(4-(imidazo[4,5-d]pyrrolo[2,3-b]pyridin-1(6H)-yl)-1H-pyrazol-1-yl)butanenitrile]: the IC50 in experiment [1] and in experiment [2] was 10 to 100 nM throughout.
Regarding `C[C@@H](O)c1nc2cnc3[nH]ccc3c2n1C1CCN(CCC#N)C1` (stereo partly drawn) [LXS49, 3-(3-(2-((R)-1-Hydroxyethyl)imidazo[4,5-d]pyrrolo[2,3-b]pyridin-1(6H)-yl)pyrrolidin-1-yl)propanenitrile], the IC50 lay in the range of 100 to 1000 nM in experiment [1] and 10 to 100 nM in experiment [2].
In the case of `N#C[C@H]1CC[C@H](n2c(-c3ccc(CO)o3)nc3cnc4[nH]ccc4c32)CC1` (stereo in doubt) [LXS22, trans-4-(2-(5-(hydroxymethyl)furan-2-yl)imidazo[4,5-d]pyrrolo[2,3-b]pyridin-1(6H)-yl)cyclohexanecarbonitrile], the IC50 in experiment [1] and in experiment [2] was 10 to 100 nM throughout.
On to `C[C@@H](O)c1nc2cnc3[nH]ccc3c2n1C1CCN(S(=O)(=O)c2ccc(OC(F)(F)F)cc2)C1` (stereo partly drawn) [LXS11, (1R)-1-(1-(1-((4-(trifluoromethoxy)phenyl)sulfonyl)pyrrolidin-3-yl)-1,6-dihydroimidazo[4,5-d]pyrrolo[2,3-b]pyridin-2-yl)ethan-1-ol], for which the IC50 lay within 100 to 1000 nM in experiment [1] and 10 to 100 nM in experiment [2].
For the compound `N#CCCn1cc(-n2c(C(F)(F)F)nc3cnc4[nH]ccc4c32)cn1` [LXS64, 3-(4-(2-(Trifluoromethyl)imidazo[4,5-d]pyrrolo[2,3-b]pyridin-1(6H)-yl)-1H-pyrazol-1-yl)propanenitrile], the IC50 is < 10 nM in experiment [1] and 100 to 1000 nM in experiment [2].
For `C[C@@H](O)c1nc2cnc3[nH]ccc3c2n1C1CCN(S(=O)(=O)c2ccccc2F)C1` (stereo partly drawn) [LXS07, (1R)-1-(1-(1-((2-fluorophenyl)sulfonyl)pyrrolidin-3-yl)-1,6-dihydroimidazo[4,5-d]pyrrolo[2,3-b]pyridin-2-yl)ethan-1-ol], the IC50 in experiment [1] and in experiment [2] was 100 to 1000 nM throughout.
As to `N#CCCn1cc(-n2c(-c3cccc(O)c3)nc3cnc4[nH]ccc4c32)cn1` [LXS82, 3-(4-(2-(3-Hydroxyphenyl)imidazo[4,5-d]pyrrolo[2,3-b]pyridin-1(6H)-yl)-1H-pyrazol-1-yl)propanenitrile], the IC50 in experiment [1] and in experiment [2] was 10 to 100 nM in each case.
`CS(=O)(=O)c1ccc(C2Nc3cnc4[nH]ccc4c3N2c2ccc(C#N)cc2)cc1` (stereo not shown) [LXS57, 4-(2-(4-(Methylsulfonyl)phenyl)-2,3-dihydroimidazo[4,5-d]pyrrolo[2,3-b]pyridin-1(6H)-yl)benzonitrile]: the IC50 in experiment [1] and in experiment [2] was 100 to 1000 nM in each case.
As for `C[C@@H](O)c1nc2cnc3[nH]ccc3c2n1[C@H]1CCN(CCC(F)(F)F)C1` [LXS96, (R)-1-(1-((S)-1-(3,3,3-trifluoropropyl)pyrrolidin-3-yl)imidazo[4,5-d]pyrrolo[2,3-b]pyridin-2-yl)ethanol], the figures for the IC50 in experiment [1] and in experiment [2] were 100 to 1000 nM and < 10 nM, respectively.
With `C[C@@H](O)c1nc2cnc3[nH]ccc3c2n1C1CCN(CC#N)C1` (stereo partly drawn) [LXS48, 2-(3-(2-((R)-1-Hydroxyethyl)imidazo[4,5-d]pyrrolo[2,3-b]pyridin-1(6H)-yl)pyrrolidin-1-yl)acetonitrile], the IC50 is 100 to 1000 nM in experiment [1] and 10 to 100 nM in experiment [2].
For `C[C@@H](O)c1nc2cnc3[nH]ncc3c2n1[C@H]1CCN(CCCC#N)C1` [LXS85, 4-((S)-3-(2-((R)-1-Hydroxyethyl)imidazo[4,5-d]pyrazolo[3,4-b]pyridin-1(6H)-yl)pyrrolidin-1-yl)butanenitrile], the values for the IC50 in experiment [1] and in experiment [2] were 100 to 1000 nM and < 10 nM, respectively.
In the case of `O=S(=O)(C1CC1)N1CCC(n2c(-c3ccc(CO)o3)nc3cnc4[nH]ccc4c32)C1` (stereo not shown) [LXS45, (5-(1-(1-(cyclopropylsulfonyl)pyrrolidin-3-yl)-1,6-dihydroimidazo[4,5-d]pyrrolo[2,3-b]pyridin-2-yl)furan-2-yl)methanol], the IC50 in experiment [1] and in experiment [2] was 10 to 100 nM throughout.
For `CCCS(=O)(=O)N1CCC(n2c(-c3cccc(O)c3)nc3cnc4[nH]ccc4c32)C1` (stereo not shown) [LXS32, 3-(1-(1-(propylsulfonyl)pyrrolidin-3-yl)-1,6-dihydroimidazo[4,5-d]pyrrolo[2,3-b]pyridin-2-yl)phenol], the IC50 in experiment [1] was < 10 nM; in experiment [2] it was 10 to 100 nM.
Take `N#C[C@H]1CC[C@H](n2c(-c3ccc(C(F)(F)F)cc3)nc3cnc4[nH]ccc4c32)CC1` (stereo in doubt) [LXS37, trans-4-(2-(4-(Trifluoromethyl)phenyl)imidazo[4,5-d]pyrrolo[2,3-b]pyridin-1(6H)-yl)cyclohexanecarbonitrile]: the IC50 in experiment [1] and in experiment [2] was 100 to 1000 nM in each case.
On to `N#C[C@H]1CC[C@H](n2c(-c3ccccc3F)nc3cnc4[nH]ccc4c32)CC1` (stereo in doubt) [LXS40, trans-4-(2-(2-Fluorophenyl)imidazo[4,5-d]pyrrolo[2,3-b]pyridin-1(6H)-yl)cyclohexanecarbonitrile], for which the IC50 in experiment [1] and in experiment [2] was 10 to 100 nM throughout.
On to `N#CCN1CCC(n2c(-c3ccc(CO)o3)nc3cnc4[nH]ccc4c32)C1` (stereo not shown) [LXS52, 2-(3-(2-(5-(hydroxymethyl)furan-2-yl)imidazo[4,5-d]pyrrolo[2,3-b]pyridin-1(6H)-yl)pyrrolidin-1-yl)acetonitrile], for which the IC50 in experiment [1] was 10 to 100 nM; in experiment [2], 100 to 1000 nM.
For `N#CCN1CCC(n2c(-c3cccc(O)c3)nc3cnc4[nH]ccc4c32)C1` (stereo not shown) [LXSS3, 2-(3-(2-(3-Hydroxyphenyl)imidazo[4,5-d]pyrrolo[2,3-b]pyridin-1(6H)-yl)pyrrolidin-1-yl)acetonitrile], the 50% inhibitory concentration (IC50) in experiment [1] and in experiment [2] was 10 to 100 nM in each case.
In the case of `Cc1ccc(-c2nc3cnc4[nH]ccc4c3n2-c2cnn(CCC#N)c2)o1` [LXS50, 3-(4-(2-(5-Methylfuran-2-yl)imidazo[4,5-d]pyrrolo[2,3-b]pyridin-1(6H)-yl)-1H-pyrazol-1-yl)propanenitrile], the IC50 in experiment [1] was < 10 nM; in experiment [2], 100 to 1000 nM.
The corresponding values for `C=CC(=O)N1CCC(n2c(-c3ncc[nH]3)nc3cnc4[nH]ccc4c32)C1` (stereo in doubt) [LXS25, (R)-1-(3-(2-(1H-imidazol-2-yl)imidazo[4,5-d]pyrrolo[2,3-b]pyridin-1(6H)-yl)pyrrolidin-1-yl)prop-2-en-1-one] are 100 to 1000 nM and 100 to 1000 nM.
Take `C[C@@H](O)c1nc2cnc3[nH]ccc3c2n1[C@H]1CCN(C(F)(F)C(F)(F)C(F)(F)C(F)(F)F)C1` [LXS101, (R)-1-(1-((S)-1-(Perfluoro-butyl)pyrrolidin-3-yl)-1,6-dihydroimidazo[4,5-d]pyrrolo[2,3-b]pyridin-2-yl)ethanol]: the results for the IC50 in experiment [1] and in experiment [2] were 100 to 1000 nM and < 10 nM, respectively.
